Results published in patent US11434232B2, “ATR inhibitor and application thereof” (WUXI BIOCITY BIOPHARMACEUTICS CO., LTD., priority 2018, dated 2022).

How the values were obtained:
[1] = Pharmacokinetic properties in vivo in female Balb/c Nude mice; parameters: species or system mouse; conditions: for AUC(0-t) / Cmax / half-life / clearance / C0 / Vd: mouse, plasma; for C0: drug concentration at 0 min; for Vd: read-out: Vdss; for F: oral bioavailability, 10 mg/kg oral vs 1 mg/kg IV
Method: Experimental method: The purpose of this study was to determine the pharmacokinetic parameters of the compounds and calculate the oral bioavailability in female Balb/c Nude mice.
The project involved 6 female Balb/c Nude mice. 3 mice were administered intravenously at a dose of 1 mg/kg, and plasma samples were collected at 0 h (before administration) and 0.0833, 0.25, 0.5, 1, 2, 4, 6, 8 and 24 h after administration, other 3 mice were given by oral gavage at a dose of 10 mg/kg or 25 mg/kg, and plasma samples were collected at 0 h (before dosing) and 0.5, 1, 2, 3, 4, 6, 8, 24 h after administration. Then LC/MS/MS analysis was performed for the collected samples and data was collected. The collected analysis data was calculated for relevant pharmacokinetic parameters with Phoenix WinNonlin 6.2.1 software.

[2] = system: human colorectal cancer LoVo cell subcutaneous xenograft; test: In vivo efficacy in colorectal cancer LoVo CDX model; parameters: species or system mouse; conditions: 25 mg/kg orally twice a day, day 17 of administration, vs vehicle control group
From the text: LoVo is a colorectal adenocarcinoma tumor cell line with MRE11A mutation (MRE11A is a key component of DNA double-strand break repairing ATM signaling pathway), which is sensitive to ATR inhibitor. In this experiment, the colorectal cancer LoVo CDX model was used to verify the inhibitory effect of ATR inhibitor as monotherapy on tumors with defect in ATM signaling pathway.
Human colorectal cancer LoVo cells (ECACC, CatLog: 87060101), in vitro monolayer culture, culture conditions: Ham's F-12 medium with 10% fetal bovine serum, 100 U/mL penicillin, 100 μg/mL streptomycin and 2 mM glutamine, 37° C., 5% CO2 culture. General passage with trypsin-EDTA digestion was performed twice a week. When the cell saturation was 80%-90%, the cells were collected, counted, and inoculated. 0.1 mL (10×10^6) of LoVo cells were subcutaneously inoculated into the right back of each nude mouse. When the mean tumor volume reached 173 mm^3, grouping and administration were initiated.
25.51 mg of WX15 was weighed and dissolved in 0.500 mL of DMSO, which were added with 2.000 mL of propylene glycol and 2.500 mL of deionized water, vortexed for homogeneous mixing, adjusted to PH=6.0, to obtain a clear solution. The preparing processes of Compound WX42, Compound WX45, Compound WX46 were referred to Compound WX15.
Dosage: All test compounds were administered orally at 25 mg/kg twice a day, with an interval of 8 h in a day.
A vernier caliper was used to measure the tumor diameter twice a week. The formula for calculating the tumor volume: V=0.5a×b^2, a and b represent the long and short diameters of the tumor, respectively. Antitumor efficacy of the compound was evaluated by TGI (%) or relative tumor proliferation rate T/C (%). Relative tumor proliferation rate T/C (%)=TRTV/CRTV×100% (TRTV: mean RTV value of treatment group; CRTV: mean RTV value of negative control group). The relative tumor volume (relative tumor volume, RTV) was calculated based on the tumor measurement results and the calculation formula was RTV=Vt/V0, where V0 is the tumor volume measured at grouping administration (i.e. D0), Vt is the tumor volume at a measurement, and data on the same day was used for TRTV and CRTV.
TGI (%) reflects the tumor growth inhibition rate. TGI (%)=[1−(mean tumor volume at the end of administration in a treatment group−mean tumor volume at the beginning of administration in this treatment group)/(mean tumor volume at the end of treatment in the solvent control group−mean tumor volume at the beginning of treatment in the solvent control group)]×100%.

[3] = biological target: human ATR kinase (Homo sapiens (Human), UniProt Q13535); test: In vitro evaluation of inhibitory activity on human ATR kinase (HTRF, ATR/ATRIP(h), GST-cMyc-p53 substrate); assay type: biochemical; conditions: 50 nM GST-cMyc-p53, 30 min room temperature
Method: IC50 values were determined to evaluate the inhibitory activity of the tested compounds on human ATR kinase.
ATR/ATRIP(h) was incubated in assay buffer containing 50 nM GST-cMyc-p53 and Mg/ATP (according to concentration required). The reaction was initiated by adding Mg/ATP mixture. After incubating for 30 min at room temperature, a stop solution containing EDTA to was added to terminate the reaction. Finally, detecting buffer containing d^2-labeled anti-GST monoclonal antibody and europium-labeled anti-phospho Ser15 antibody against phosphorylated p^53 were added. Then the plate was read in time-resolved fluorescence mode and homogeneous time resolution was performed.
The fluorescence (HTRF) signal was determined according to the formula HTRF=10000×(Em665 nm/Em620 nm).
IC50 data was analyzed using XLFit version 5.3 (ID Business Solutions). Non-linear regression analysis was used to fit the sigmoidal dose response (variable slope) curve.

[4] = system: tumor cell line LoVo; test: In vitro cell viability test (CellTiter-Glo), LoVo cell proliferation inhibition; assay type: cell-based; conditions: Homo sapiens
Method: In this experiment, inhibitory effect of the compounds on cell proliferation was investigated by testing influence on cell viability in vitro in tumor cell line LoVo.
CellTiter-Glo Luminescence Cell Viability Test
The following protocols were performed according to instruction of PromegaCellTiter-Glo Luminescence cell viability test Kit (Promega-G7573). • (1) Thawing CellTiter-Glo buffer and allowing it to acclimate to room temperature. • (2) Allowing CellTiter-Glo substrate to acclimate to room temperature. • (3) Adding CellTiter-Glo buffer to a bottle of CellTiter-Glo substrate to dissolve the substrate to prepare CellTiter-Glo working solution. • (4) Vortexing slowly to full dissolution. • (5) Removing the cell culture plate and balancing it to room temperature for 30 min. • (6) Adding 50 μL (equivalent to half volume of cell culture medium in each well) of CellTiter-Glo working solution to each well, wrapping the cell plate with aluminum foil to protect from light. • (7) Shaking the culture plate on an orbital shaker for 2 min to induce cell lysis. • (8) Placing the culture plate at room temperature for 10 min to stabilize the luminescence signal. • (9) Detecting the luminescence signal on SpectraMax i3× of Molecular Devices plate reader. Data Analysis
The following formula was used to calculate the inhibition rate of the test compound (Inhibition rate, IR): IR(%)=(1−(RLU Compound−RLU Blank control)/(RLU Vehicle control−RLU Blank control))*100%.
The inhibition rates of different concentrations of compounds were calculated in Excel, and GraphPad Prism software was used to make the inhibition curve and calculate relevant parameters, including the minimum inhibition rate, the maximum inhibition rate and IC50.

human ATR kinase, sequence (Q13535 whole entry): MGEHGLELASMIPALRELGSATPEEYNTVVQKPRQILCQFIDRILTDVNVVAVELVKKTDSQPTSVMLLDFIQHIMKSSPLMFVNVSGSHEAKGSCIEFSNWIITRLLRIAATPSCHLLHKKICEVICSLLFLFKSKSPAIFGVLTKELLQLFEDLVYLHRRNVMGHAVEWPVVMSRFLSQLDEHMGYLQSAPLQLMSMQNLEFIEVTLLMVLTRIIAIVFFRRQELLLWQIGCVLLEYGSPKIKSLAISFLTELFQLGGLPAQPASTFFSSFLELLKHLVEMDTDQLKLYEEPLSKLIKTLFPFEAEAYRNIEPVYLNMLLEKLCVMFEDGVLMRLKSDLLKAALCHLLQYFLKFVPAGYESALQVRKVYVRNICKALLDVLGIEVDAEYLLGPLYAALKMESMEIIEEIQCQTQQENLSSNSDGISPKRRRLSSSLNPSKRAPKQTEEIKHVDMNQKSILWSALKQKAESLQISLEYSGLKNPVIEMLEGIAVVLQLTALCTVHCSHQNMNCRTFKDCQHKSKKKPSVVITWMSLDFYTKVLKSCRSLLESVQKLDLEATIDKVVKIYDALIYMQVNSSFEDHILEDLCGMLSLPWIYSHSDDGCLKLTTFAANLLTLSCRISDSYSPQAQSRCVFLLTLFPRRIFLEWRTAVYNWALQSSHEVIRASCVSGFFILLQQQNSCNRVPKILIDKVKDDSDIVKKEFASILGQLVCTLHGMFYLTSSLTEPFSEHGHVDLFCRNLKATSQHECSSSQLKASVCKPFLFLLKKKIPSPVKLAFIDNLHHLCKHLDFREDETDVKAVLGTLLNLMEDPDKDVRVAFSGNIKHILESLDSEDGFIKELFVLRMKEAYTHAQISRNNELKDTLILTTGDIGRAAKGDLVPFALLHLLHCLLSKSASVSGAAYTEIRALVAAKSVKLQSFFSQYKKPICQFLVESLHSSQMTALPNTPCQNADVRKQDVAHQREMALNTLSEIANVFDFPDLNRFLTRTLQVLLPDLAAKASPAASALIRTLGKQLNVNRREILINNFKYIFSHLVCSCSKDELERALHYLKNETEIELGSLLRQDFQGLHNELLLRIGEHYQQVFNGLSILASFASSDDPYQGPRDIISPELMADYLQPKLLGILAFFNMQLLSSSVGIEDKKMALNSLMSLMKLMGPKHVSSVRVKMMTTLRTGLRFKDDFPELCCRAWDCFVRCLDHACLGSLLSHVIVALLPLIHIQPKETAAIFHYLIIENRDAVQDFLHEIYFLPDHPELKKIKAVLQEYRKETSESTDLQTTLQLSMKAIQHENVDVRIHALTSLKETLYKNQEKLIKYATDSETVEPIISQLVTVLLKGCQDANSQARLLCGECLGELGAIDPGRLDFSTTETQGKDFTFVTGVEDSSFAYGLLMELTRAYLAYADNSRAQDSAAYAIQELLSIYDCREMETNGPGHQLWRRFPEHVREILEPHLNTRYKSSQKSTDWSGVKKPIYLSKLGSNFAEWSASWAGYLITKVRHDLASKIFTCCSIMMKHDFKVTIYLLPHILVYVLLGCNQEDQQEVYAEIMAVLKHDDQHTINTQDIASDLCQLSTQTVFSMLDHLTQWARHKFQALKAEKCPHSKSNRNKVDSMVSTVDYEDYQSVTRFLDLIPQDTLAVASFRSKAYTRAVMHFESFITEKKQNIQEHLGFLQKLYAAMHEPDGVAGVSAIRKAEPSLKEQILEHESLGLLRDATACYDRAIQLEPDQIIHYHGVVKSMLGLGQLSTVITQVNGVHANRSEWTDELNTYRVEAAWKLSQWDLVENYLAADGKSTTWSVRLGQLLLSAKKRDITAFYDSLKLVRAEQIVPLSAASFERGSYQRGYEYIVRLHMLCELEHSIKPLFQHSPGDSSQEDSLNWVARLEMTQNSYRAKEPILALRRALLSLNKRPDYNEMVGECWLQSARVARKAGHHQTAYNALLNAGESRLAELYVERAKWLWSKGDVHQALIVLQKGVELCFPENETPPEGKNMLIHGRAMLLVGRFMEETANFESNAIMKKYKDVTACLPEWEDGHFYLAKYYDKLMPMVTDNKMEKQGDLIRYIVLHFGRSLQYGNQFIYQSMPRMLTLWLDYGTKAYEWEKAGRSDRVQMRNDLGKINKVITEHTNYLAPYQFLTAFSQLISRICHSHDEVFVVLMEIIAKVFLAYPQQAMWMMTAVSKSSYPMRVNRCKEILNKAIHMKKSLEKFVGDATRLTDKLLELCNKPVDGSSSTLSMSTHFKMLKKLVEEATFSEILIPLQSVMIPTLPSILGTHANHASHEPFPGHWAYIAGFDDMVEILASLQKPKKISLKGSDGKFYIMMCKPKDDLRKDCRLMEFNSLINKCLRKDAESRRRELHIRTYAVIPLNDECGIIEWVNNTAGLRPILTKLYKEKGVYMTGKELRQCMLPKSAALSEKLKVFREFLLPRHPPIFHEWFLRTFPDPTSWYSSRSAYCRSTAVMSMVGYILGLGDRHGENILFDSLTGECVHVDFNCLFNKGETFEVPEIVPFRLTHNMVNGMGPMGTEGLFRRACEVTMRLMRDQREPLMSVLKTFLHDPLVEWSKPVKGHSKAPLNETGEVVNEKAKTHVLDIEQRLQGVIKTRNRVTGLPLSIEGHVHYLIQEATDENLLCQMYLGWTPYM
human ATR kinase, sequence (Q8WXE1 whole entry partner): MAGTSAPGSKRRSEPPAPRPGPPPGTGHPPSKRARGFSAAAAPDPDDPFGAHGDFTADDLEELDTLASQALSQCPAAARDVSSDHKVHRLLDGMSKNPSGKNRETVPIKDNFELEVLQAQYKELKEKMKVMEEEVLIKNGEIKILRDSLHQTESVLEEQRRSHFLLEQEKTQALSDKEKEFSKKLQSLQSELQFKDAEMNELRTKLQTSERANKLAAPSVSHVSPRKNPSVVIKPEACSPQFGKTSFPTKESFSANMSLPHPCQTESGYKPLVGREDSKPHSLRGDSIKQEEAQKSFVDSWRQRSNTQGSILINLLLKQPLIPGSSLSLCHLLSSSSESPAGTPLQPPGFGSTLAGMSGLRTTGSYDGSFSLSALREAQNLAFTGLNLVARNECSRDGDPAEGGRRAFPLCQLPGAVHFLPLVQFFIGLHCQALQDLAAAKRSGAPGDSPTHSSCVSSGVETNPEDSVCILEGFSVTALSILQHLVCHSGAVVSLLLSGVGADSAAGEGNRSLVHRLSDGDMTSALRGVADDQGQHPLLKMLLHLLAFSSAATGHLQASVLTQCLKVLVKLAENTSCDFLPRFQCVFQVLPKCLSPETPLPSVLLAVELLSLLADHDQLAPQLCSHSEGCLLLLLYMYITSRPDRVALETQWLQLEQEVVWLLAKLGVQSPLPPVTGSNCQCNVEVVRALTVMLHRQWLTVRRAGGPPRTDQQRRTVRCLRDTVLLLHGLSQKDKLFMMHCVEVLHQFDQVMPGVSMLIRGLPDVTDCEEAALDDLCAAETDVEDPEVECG

AUC(0-t) ([1]; 25 mg/kg oral gavage) | Cmax ([1]; 25 mg/kg oral gavage) | half-life ([1]; 25 mg/kg oral gavage) | IC50 [3] | IC50 [4] | AUC(0-t) ([1]; 1 mg/kg IV) | clearance ([1]; 1 mg/kg IV) | half-life ([1]; 1 mg/kg IV) | C0 ([1]; 1 mg/kg IV) | Vd ([1]; 1 mg/kg IV) | AUC(0-t) ([1]; 10 mg/kg oral gavage) | Cmax ([1]; 10 mg/kg oral gavage) | half-life ([1]; 10 mg/kg oral gavage) | F [1] | Structure (SMILES) | T/C (relative tumor proliferation rate) [2] | TGI (tumor growth inhibition rate) [2]
26.2 µM·h | 10.6 µM | 0.892 h | 31 nM | 350 nM | – | – | – | – | – | – | – | – | – | Cc1nnc(C)n1-c1cc(N2CCOC[C@H]2C)nc(-c2cc(F)cc3[nH]ccc23)n1 [WX46] | 43.8% | 79.9%
– | – | – | 69 nM | 750 nM | 0.88 µM·h | 48.3 mL/min/kg | 0.99 h | 1.58 µM | 2.59 L/kg | 10.9 µM·h | 7.72 µM | 1.69 h | 123.0% | Cc1nnc(C)n1-c1cc(N2CCOC[C@H]2C)nc(-c2cccc3[nH]ccc23)n1 [WX45] | 32.3% | 79.9%
– | – | – | 159 nM | 410 nM | 0.905 µM·h | 47 mL/min/kg | 0.78 h | 1.96 µM | 2.21 L/kg | 8.75 µM·h | 4.56 µM | 1.23 h | 96.0% | C[C@@H]1COCCN1c1cc(-c2ccnn2C)nc(-c2ccnc3[nH]ccc23)n1 [WX15] | 46.7% | 66.8%
– | – | – | 29 nM | 510 nM | 1.09 µM·h | 34.3 mL/min/kg | 2.57 h | 1.96 µM | 2.21 L/kg | 15 µM·h | 6.5 µM | 2.02 h | 129.0% | Cc1cnn(C)c1-c1cc(N2CCOC[C@H]2C)nc(-c2cc(CO)cc3[nH]ccc23)n1 [WX42] | 27.8% | 90.7%
